These results are taken from ChEMBL document CHEMBL3774340, “Structure-Guided Design of IACS-9571, a Selective High-Affinity Dual TRIM24-BRPF1 Bromodomain Inhibitor” (J Med Chem, 2016).

pEC50, pIC50: −log10 of the molar value. Values after ≈ are worked out from the molar mass of the structure shown. Where only a bound is given, the exact number is not on record here.

The target of series [1] is T1, Transcription intermediary factor 1-alpha (Homo sapiens, UniProt O15164).
T1 sequence (O15164 whole entry): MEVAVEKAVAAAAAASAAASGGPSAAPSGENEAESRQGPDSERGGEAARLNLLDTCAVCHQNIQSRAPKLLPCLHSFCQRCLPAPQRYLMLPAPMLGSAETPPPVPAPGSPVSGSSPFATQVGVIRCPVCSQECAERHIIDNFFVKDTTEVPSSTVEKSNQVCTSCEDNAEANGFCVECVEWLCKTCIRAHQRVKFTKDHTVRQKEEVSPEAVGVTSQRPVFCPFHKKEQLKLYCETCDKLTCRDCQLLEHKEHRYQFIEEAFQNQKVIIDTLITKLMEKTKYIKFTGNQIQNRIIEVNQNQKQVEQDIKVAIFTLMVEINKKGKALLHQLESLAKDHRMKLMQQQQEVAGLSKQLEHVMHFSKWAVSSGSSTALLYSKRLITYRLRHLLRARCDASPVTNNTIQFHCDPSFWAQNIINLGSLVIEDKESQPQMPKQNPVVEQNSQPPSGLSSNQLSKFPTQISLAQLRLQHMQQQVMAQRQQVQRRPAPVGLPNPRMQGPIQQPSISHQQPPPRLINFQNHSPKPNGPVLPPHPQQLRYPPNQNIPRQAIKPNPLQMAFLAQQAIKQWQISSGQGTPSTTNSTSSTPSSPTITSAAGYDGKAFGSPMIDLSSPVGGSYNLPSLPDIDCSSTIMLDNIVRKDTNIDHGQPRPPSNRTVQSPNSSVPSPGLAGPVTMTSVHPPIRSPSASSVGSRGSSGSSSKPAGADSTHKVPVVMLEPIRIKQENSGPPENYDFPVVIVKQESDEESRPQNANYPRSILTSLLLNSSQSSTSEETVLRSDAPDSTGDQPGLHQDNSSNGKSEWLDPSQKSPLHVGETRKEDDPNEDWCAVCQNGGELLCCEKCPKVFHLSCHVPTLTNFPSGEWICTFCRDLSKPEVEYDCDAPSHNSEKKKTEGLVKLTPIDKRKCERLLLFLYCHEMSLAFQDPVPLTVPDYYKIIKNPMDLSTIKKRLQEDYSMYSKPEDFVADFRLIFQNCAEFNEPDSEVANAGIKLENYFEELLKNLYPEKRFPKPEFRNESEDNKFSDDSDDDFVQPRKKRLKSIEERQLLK
Briefly: Inhibition of recombinant human His-tagged TRIM24-PHD/bromodomain expressed in Escherichia coli strains BL21 (DE3) cells using biotinylated H3K23ac (1 to 33 residues) peptide after 1 hr by AlphaScreen assay.

Series [2] addresses T1, Transcription intermediary factor 1-alpha. Description: Inhibition of Flag-tagged TRIM24-PHD/bromodomain (unknown origin) expressed in human HeLa cells for 2 hrs by AlphaLisa assay. In kind it is cell-based. (In general: Alpha assays give light when donor and acceptor beads are brought close together.)
Series [3] can be described thus: Kinetic solubility of compound in phosphate buffer at pH 7.
Series [4] in a line: Terminal half life in CD1 mouse at 1 mg/kg, iv. The settings on record: in vivo, read-out: beta t1/2 (converted). In kind it is ADME, organism-based.
Series [5] is described as follows: Clearance in CD1 mouse at 1 mg/kg, iv. To be noted: in vivo. In kind it is ADME, organism-based.
A short description of series [6]: Oral bioavailability in CD1 mouse at 10 mg/kg. In kind it is ADME, organism-based. The settings on record: in vivo.
Series [7] in a line: Apparent permeability from apical to basolateral side in human Caco2 cells. The settings on record: Caco-2.

As to `COc1cc2c(cc1NS(=O)(=O)c1cccc(C#N)c1)n(C)c(=O)n2C`, the negative logarithm of the IC50 (pIC50) in series [1] was 5.00. On to `COc1ccc(S(=O)(=O)Nc2ccc3c(c2)n(C)c(=O)n3C)cc1`, for which the pIC50 in series [1] is 5.03. On to `Cn1c(=O)n(C)c2cc(NS(=O)(=O)c3ccccc3)ccc21`, for which, in series [1], the negative logarithm of the IC50 (pIC50) is 4.64. Still for that read-out and setting: in the case of `COc1ccc(Oc2cc3c(cc2NS(=O)(=O)c2ccccc2)n(C)c(=O)n3C)cc1` it was 5.82; in that of `CN1C(=O)CCc2cc(NS(=O)(=O)c3ccc(C4CCCCC4)cc3)ccc21`, 5.55. For `CCCCOc1cccc(Oc2cc3c(cc2NS(=O)(=O)c2cn(C)c(C)n2)n(C)c(=O)n3C)c1`, the pIC50 in series [1] was 6.80. This molecule also showed a pEC50 in series [2] of 5.52. In series [3], `Cc1nc(S(=O)(=O)Nc2cc3c(cc2Oc2cccc(OCC(C)C)c2)n(C)c(=O)n3C)cn1C` had a kinetic solubility of 87 µM (≈ 43.5 µg/mL). Also, the pIC50 in series [1] is 7.24. Molecule `COCCCOc1cccc(Oc2cc3c(cc2NS(=O)(=O)c2cn(C)c(C)n2)n(C)c(=O)n3C)c1` yielded a solubility (kinetic) in series [3] of 100 µM (≈ 51.6 µg/mL). In addition, the pIC50 in series [1] was 6.89. The molecule also had a pEC50 in series [2] of 5.57. Turning to `CCCOc1cc(OCCCN)cc(Oc2cc3c(cc2NS(=O)(=O)c2ccc(OC)c(OC)c2)n(C)c(=O)n3C)c1`, in series [1], the negative logarithm of the IC50 (pIC50) was 7.89. This molecule had a negative logarithm of the EC50 (pEC50) in series [2] of 6.92. Turning to `CCCOc1cc(OCCCCN(C)C)cc(Oc2cc3c(cc2NS(=O)(=O)c2ccc(OC)c(OC)c2)n(C)c(=O)n3C)c1`, the solubility (kinetic) in series [3] amounted to 76 µM (≈ 48.9 µg/mL). In addition, in series [4], the half-life is 42 min. The molecule further showed a clearance in series [5] of 43 mL/min/kg. In addition, the bioavailability in series [6] turned out to be 29%. For the molecule `Cn1cnc(S(=O)(=O)Nc2cc3c(cc2Oc2ccc(OCc4ccccc4)cc2)n(C)c(=O)n3C)c1`, the negative-log IC50 (pIC50) in series [1] was 5.70. The molecule further gave a pEC50 in series [2] below 4.48. The like results for `CCCOc1cc(OCCCCCCNC(=O)OC(C)(C)C)cc(Oc2cc3c(cc2NS(=O)(=O)c2cn(C)cn2)n(C)c(=O)n3C)c1` were, in that order, 6.80 and 5.26. Turning to `CSc1ccc(S(=O)(=O)Nc2ccc3c(c2)n(C)c(=O)n3C)cc1`, in series [1], the pIC50 was 5.31. In series [3], `CCOc1cccc(Oc2cc3c(cc2NS(=O)(=O)c2cn(C)c(C)n2)n(C)c(=O)n3C)c1` came in with a solubility (kinetic) of 74 µM (≈ 34.9 µg/mL). Besides, the pIC50 in series [1] is 6.74. The molecule further showed a negative-log EC50 (pEC50) in series [2] of 5.64. For the molecule `CC(C)COc1ccc(S(=O)(=O)Nc2ccc3c(c2)CCC(=O)N3C)cc1`, the pIC50 in series [1] was 5.43. In the case of `CCCOc1cc(OCCCCCCN)cc(Oc2cc3c(cc2NS(=O)(=O)c2ccc(OC)c(OC)c2)n(C)c(=O)n3C)c1`, the pIC50 in series [1] was 7.89. Moreover, the negative logarithm of the EC50 (pEC50) in series [2] was 6.77. As for `CCCOc1cc(OCCCCCCO)cc(Oc2cc3c(cc2NS(=O)(=O)c2cn(C)cn2)n(C)c(=O)n3C)c1`, in series [1], the pIC50 was 7.22. In series [2], this molecule gave a negative-log EC50 (pEC50) of 5.74. In the case of `CC(C)COc1ccc(S(=O)(=O)Nc2ccc3c(c2)n(C)c(=O)n3C)cc1`, in series [1], the negative logarithm of the IC50 (pIC50) was 5.40. As to `COc1ccc(S(=O)(=O)Nc2cc3c(cc2Oc2cccc(OCCCCN(C)C)c2)n(C)c(=O)n3C)cc1OC`, the kinetic solubility in series [3] worked out at 66 µM (≈ 38.6 µg/mL). Further, the pIC50 in series [1] is 6.57. Moreover, the negative logarithm of the EC50 (pEC50) in series [2] is 5.49. The like results for `CCCOc1cc(OCCCCN)cc(Oc2cc3c(cc2NS(=O)(=O)c2ccc(OC)c(OC)c2)n(C)c(=O)n3C)c1` were, in that order, 42 µM (≈ 25.8 µg/mL), 8.08 and 7.23.

Take `CSc1ccc(S(=O)(=O)Nc2ccc3c(c2)CC(=O)N3C)cc1`: the pIC50 in series [1] was 4.77. With `CCCOc1cccc(Oc2cc3c(cc2NS(=O)(=O)c2cn(C)c(C)n2)n(C)c(=O)n3C)c1`, the solubility (kinetic) in series [3] came to 62 µM (≈ 30.1 µg/mL). In addition, the pIC50 in series [1] was 7.28. In addition, in series [2], the negative-log EC50 (pEC50) is 6.02. Regarding `CC(C)COc1cccc(Oc2cc3c(cc2NS(=O)(=O)C2CC2)n(C)c(=O)n3C)c1`, the kinetic solubility in series [3] was found to be 0.78 µM (≈ 0.348 µg/mL). In addition, in series [1], the negative-log IC50 (pIC50) is 6.96. In addition, the negative logarithm of the EC50 (pEC50) in series [2] was 5.30.

With `CCCOc1cc(OCCCCN)cc(Oc2cc3c(cc2NS(=O)(=O)c2cn(C)cn2)n(C)c(=O)n3C)c1`, in series [1], the pIC50 is 8.10. In addition, in series [2], the pEC50 is 6.92. `COc1ccc(S(=O)(=O)Nc2cc3c(cc2Oc2cccc(OCc4ccccc4)c2)n(C)c(=O)n3C)cc1OC`: the solubility (kinetic) in series [3] was 0.6 µM (≈ 0.345 µg/mL). The negative-log IC50 (pIC50) in series [1] is 6.85. The molecule further gave a pEC50 in series [2] of 5.41. Also, the Papp A→B in series [7] came to 21 ×10⁻⁶ cm/s. Regarding `Cn1c(=O)n(C)c2cc(NS(=O)(=O)c3ccc(C4CCCCC4)cc3)ccc21`, the negative-log IC50 (pIC50) in series [1] is 5.77. Turning to `COc1cc2c(cc1NS(=O)(=O)c1ccccc1)CCC(=O)N2C`, the pIC50 in series [1] was 4.44. For the molecule `CCCOc1cc(OCCCCCN)cc(Oc2cc3c(cc2NS(=O)(=O)c2cn(C)cn2)n(C)c(=O)n3C)c1`, in series [1], the pIC50 is 7.96. In series [2], this molecule gave a negative-log EC50 (pEC50) of 6.96. On to `Cc1nc(-c2ccc3c(c2)CC(=O)N3C)cs1`, for which the pIC50 in series [1] was 5.07.

On to `COc1ccc(S(=O)(=O)Nc2ccc3c(c2)CCC(=O)N3C)c(OC)c1`, for which the negative-log IC50 (pIC50) in series [1] was 5.60. Take `CSc1ccc(S(=O)(=O)Nc2ccc3c(c2)N(C)C(=O)CC3)cc1`: the pIC50 in series [1] was 4.85. Turning to `Cc1nc(S(=O)(=O)Nc2cc3c(cc2Oc2cccc(OCc4ccccc4)c2)n(C)c(=O)n3C)cn1C`, the pIC50 in series [1] is 6.57. In addition, the negative logarithm of the EC50 (pEC50) in series [2] is 5.31. `CC(C)COc1cccc(Oc2ccc3c(c2)n(C)c(=O)n3C)c1` registered a kinetic solubility in series [3] of 2.6 µM (≈ 0.849 µg/mL). Besides, the pIC50 in series [1] was 5.62. The same molecule gave a negative-log EC50 (pEC50) in series [2] below 4.44.

`Cn1cnc(S(=O)(=O)Nc2cc3c(cc2Oc2cccc(OCC4CCOC4)c2)n(C)c(=O)n3C)c1` (configuration not stated) yielded a solubility (kinetic) in series [3] of 77 µM (≈ 39.5 µg/mL). The negative logarithm of the IC50 (pIC50) in series [1] is 7.00. For the same molecule, the negative-log EC50 (pEC50) in series [2] is 5.72. For the molecule `CSc1ccc(S(=O)(=O)Nc2ccc3c(c2)CCC(=O)N3C)cc1`, the pIC50 in series [1] was 5.32. As to `CCCOc1cccc(Oc2cc3c(cc2NS(=O)(=O)c2ccc(OC)c(OC)c2)n(C)c(=O)n3C)c1`, in series [3], the solubility (kinetic) is 1.1 µM (≈ 0.58 µg/mL). Further, the pIC50 in series [1] was 7.37. For the same molecule, the negative-log EC50 (pEC50) in series [2] was 6.08. Regarding `CCCOc1cc(OCCCCCCN)cc(Oc2cc3c(cc2NS(=O)(=O)c2cn(C)cn2)n(C)c(=O)n3C)c1`, in series [1], the negative logarithm of the IC50 (pIC50) was 8.00. This molecule showed a negative-log EC50 (pEC50) in series [2] of 6.77.

As usually defined, the pIC50 is the negative decadic logarithm of the IC50, by convention in mol/L. A word on the pEC50: it is the negative decadic logarithm of the EC50, by convention in mol/L. Read a high pEC50 as a low EC50. The term kinetic solubility denotes solubility judged after dilution from a stock solution rather than from solid. The clearance is a measure of how efficiently the substance is removed, as volume per time. A low value points to inefficient removal. In general, bioavailability refers to dose-corrected exposure relative to a reference, in per cent. Broadly, the Papp A→B is the apparent permeability from the apical to the basolateral side of a cell layer.
